Assay [1] deals with T1, human recombinant serotonin (5-Hydroxytryptamine) 5-HT7 receptor (Homo sapiens, UniProt P34969).
T1 construct: expressed in transfected cells; host or cells: CHO
The assay is described as follows: Serotonin 5-HT7 radioligand binding ([3H]LSD). To be noted: compound at 0.1 μM; read-out: Percentage inhibition of ligand binding, Serotonin (0.1 μM) 5-HT7. The method, then:
To evaluate in radioligand binding assays the activity of compounds of the invention, human recombinant serotonin (5-Hydroxytryptamine) 5-HT7 receptor expressed in Chinese hamster ovary (CHO) cells (Roth, B. et al, J. Pharmacol. Exp. Ther. 268:1403, 1994; Shen, Y. et al, J. Biol. Chem. 268:18200, 1993) in a modified Tris-HCl buffer (50 mM Tris-HCl, pH 7.4, 10 mM MgCl2, 0.5 mM EDTA) was used. Compounds of invention were incubated with 5.5 nM [^3H] Lysergic acid diethylamide (LSD) for 2 h at 25° C. Non-specific binding was estimated in the presence of 10 μM Serotonin (5-HT). Receptor proteins were filtered and washed, the filters were then counted to determine [^3H]LSD specifically bound. Compounds were screened at 1 μM or lower, using 1% DMSO as vehicle. Biochemical assay results are presented as the percent inhibition of specific binding in Table 4.

In assay [2] the target is T2, human recombinant serotonin (5-Hydroxytryptamine) 5-HT5A receptor (Homo sapiens, UniProt P47898).
T2 construct: expressed in transfected cells; host or cells: CHO-K1
T2 sequence (P47898 whole entry): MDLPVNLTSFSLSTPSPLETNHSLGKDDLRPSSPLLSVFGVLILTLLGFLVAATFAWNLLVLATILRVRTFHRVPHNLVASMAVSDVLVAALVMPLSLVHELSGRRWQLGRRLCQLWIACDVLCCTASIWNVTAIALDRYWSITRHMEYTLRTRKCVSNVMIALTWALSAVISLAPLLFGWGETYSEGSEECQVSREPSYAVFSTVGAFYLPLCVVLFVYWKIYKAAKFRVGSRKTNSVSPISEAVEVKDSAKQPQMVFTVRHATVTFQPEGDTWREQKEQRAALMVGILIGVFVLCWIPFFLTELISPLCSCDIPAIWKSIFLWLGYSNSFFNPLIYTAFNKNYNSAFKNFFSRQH
Nature of the assay: Serotonin 5-HT5A radioligand binding ([3H]LSD). The conditions noted are these: compound at 0.1 μM; read-out: Percentage inhibition of ligand binding, Serotonin (0.1 μM) 5-HT5A. The method, then: To evaluate in radioligand binding assays the activity of compounds of the invention, human recombinant serotonin (5-Hydroxytryptamine) 5-HT5A receptor expressed in Chinese hamster ovary (CHO) K1 cells (Rees, S. et al, FEBS Lett. 355:242, 1994) in a modified Tris-HCl buffer (50 mM Tris-HCl, pH 7.4, 10 mM MgCl2, 0.5 mM EDTA) was used. Compounds of the invention were incubated with 1.7 nM [^3H]Lysergic acid diethylamide (LSD) for 60 min at 37° C. Non-specific binding was estimated in the presence of 100 μM Serotonin (5-HT). Receptor proteins were filtered and washed, the filters were counted to determine [^3H]LSD specifically bound. Compounds were screened at 1 μM or lower, using 1% DMSO as vehicle. Biochemical assay results are presented as the percent inhibition of specific binding in Table 4.

Assay [3] has as its target T3, human recombinant serotonin (5-Hydroxytryptamine) 5-HT6 receptor (Homo sapiens, UniProt P50406).
T3 construct: expressed in transfected cells; host or cells: HeLa
The assay is described as follows: Serotonin 5-HT6 radioligand binding ([3H]LSD). The conditions noted are these: compound at 0.1 μM; read-out: Percentage inhibition of ligand binding, Serotonin (0.1 μM) 5-HT6. The method, then: To evaluate in radioligand binding assays the activity of compounds of the invention, human recombinant serotonin (5-Hydroxytryptamine) 5-HT6 receptor expressed in human HeLa cells (Monsma, F. Jr. et al, Mol. Pharmacol. 43:320, 1993) in a modified Tris-HCl buffer (50 mM Tris-HCl, pH 7.4, 150 mM NaCl, 2 mM Ascorbic Acid, 0.001% BSA) was used. Compounds of the invention were incubated with 1.5 nM [3H]Lysergic acid diethylamide (LSD) for 120 min at 37° C. Non-specific binding was estimated in the presence of 5 μM Serotonin (5-HT). Receptor proteins were filtered and washed, the filters were then counted to determine [3H]LSD specifically bound. Compounds were screened at 1 μM or lower, using 1% DMSO as vehicle. Biochemical assay results are presented as the percent inhibition of specific binding in Table 4.

Assay [4] concerns the target T4, human recombinant serotonin (5-Hydroxytryptamine) 5-HT2C receptor (Homo sapiens, UniProt P28335).
T4 construct: expressed in transfected cells; host or cells: CHO-K1
T4 sequence (P28335 33-458): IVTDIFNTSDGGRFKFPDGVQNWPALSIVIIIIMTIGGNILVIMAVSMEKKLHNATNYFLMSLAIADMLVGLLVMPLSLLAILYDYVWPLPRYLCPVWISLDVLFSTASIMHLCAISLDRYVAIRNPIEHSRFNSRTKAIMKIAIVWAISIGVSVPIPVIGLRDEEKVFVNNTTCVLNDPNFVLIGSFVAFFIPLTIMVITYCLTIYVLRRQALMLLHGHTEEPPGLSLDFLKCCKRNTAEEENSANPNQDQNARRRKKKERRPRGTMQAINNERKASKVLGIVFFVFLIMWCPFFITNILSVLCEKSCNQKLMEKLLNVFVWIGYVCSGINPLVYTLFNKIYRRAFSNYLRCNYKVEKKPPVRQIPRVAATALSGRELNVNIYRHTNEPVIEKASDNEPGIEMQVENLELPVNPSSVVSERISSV
Nature of the assay: Serotonin 5-HT2C radioligand binding ([3H]Mesulergine). To be noted: compound at 0.1 μM; read-out: Percentage inhibition of ligand binding, Serotonin (0.1 μM) 5-HT2C. The method, then:
To evaluate in radioligand binding assays the activity of compounds of the invention, human recombinant serotonin (5-Hydroxytryptamine) 5-HT2C receptor expressed in Chinese hamster ovary (CHO) K1 cells (Wolf, W. et al, J. Neurochem. 69:1449, 1997) in a modified Tris-HCl buffer (50 mM Tris-HCl, pH 7.4, 0.1% Ascorbic Acid, 10 μM Pargyline) was used. Compounds of the invention were incubated with 1 nM [^3H]Mesulergine for 60 min at 25° C. Non-specific binding was estimated in the presence of 1 μM Mianserin. Receptor proteins were filtered and washed, the filters were then counted to determine [^3H]Mesulergine specifically bound. Compounds were screened at 1 μM or lower, using 1% DMSO as vehicle. Biochemical assay results are presented as the percent inhibition of specific binding in Table 4.

Assay [5] addresses T5, human recombinant serotonin (5-Hydroxytryptamine) 5-HT2A receptor (Homo sapiens, UniProt P28223).
T5 construct: expressed in transfected cells; host or cells: CHO-K1
Nature of the assay: Serotonin 5-HT2A radioligand binding ([3H]Ketanserin). To be noted: compound at 0.1 μM; read-out: Percentage inhibition of ligand binding, Serotonin (0.1 μM) 5-HT2A. The method, then:
To evaluate in radioligand binding assays the activity of compounds of the invention, human recombinant serotonin (5-Hydroxytryptamine) 5-HT2A receptor expressed in Chinese hamster ovary (CHO) K1 cells (Bonhaus, D. et al, Br. J. Pharmacol. 115:622, 1995; Saucier, C. et al, J. Neurochem. 68:1998, 1997) in a 50 mM Tris-HCl buffer, pH 7.4, was used. Compounds of the invention were incubated with 0.5 nM [^3H]Ketanserin for 60 min at 25° C. Non-specific binding was estimated in the presence of 1 μM Mianserin. Receptor proteins were filtered and washed, the filters were then counted to determine [^3H]Ketanserin specifically bound. Compounds were screened at 1 μM or lower, using 1% DMSO as vehicle. Biochemical assay results are presented as the percent inhibition of specific binding in Table 4.

The structures appear in SMILES notation.

T3 sequence (P50406 whole entry): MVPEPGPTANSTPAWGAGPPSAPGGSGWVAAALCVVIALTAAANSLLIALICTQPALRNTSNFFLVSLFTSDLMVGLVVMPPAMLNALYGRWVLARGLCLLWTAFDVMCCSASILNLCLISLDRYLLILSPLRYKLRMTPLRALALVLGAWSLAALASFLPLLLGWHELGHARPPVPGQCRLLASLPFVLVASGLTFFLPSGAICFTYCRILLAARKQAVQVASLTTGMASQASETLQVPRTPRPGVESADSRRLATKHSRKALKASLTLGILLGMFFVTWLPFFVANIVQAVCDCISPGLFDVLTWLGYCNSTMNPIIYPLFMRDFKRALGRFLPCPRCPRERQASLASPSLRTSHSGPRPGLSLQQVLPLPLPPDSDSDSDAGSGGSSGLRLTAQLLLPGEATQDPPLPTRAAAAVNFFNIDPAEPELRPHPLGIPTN
T1 sequence (P34969 whole entry): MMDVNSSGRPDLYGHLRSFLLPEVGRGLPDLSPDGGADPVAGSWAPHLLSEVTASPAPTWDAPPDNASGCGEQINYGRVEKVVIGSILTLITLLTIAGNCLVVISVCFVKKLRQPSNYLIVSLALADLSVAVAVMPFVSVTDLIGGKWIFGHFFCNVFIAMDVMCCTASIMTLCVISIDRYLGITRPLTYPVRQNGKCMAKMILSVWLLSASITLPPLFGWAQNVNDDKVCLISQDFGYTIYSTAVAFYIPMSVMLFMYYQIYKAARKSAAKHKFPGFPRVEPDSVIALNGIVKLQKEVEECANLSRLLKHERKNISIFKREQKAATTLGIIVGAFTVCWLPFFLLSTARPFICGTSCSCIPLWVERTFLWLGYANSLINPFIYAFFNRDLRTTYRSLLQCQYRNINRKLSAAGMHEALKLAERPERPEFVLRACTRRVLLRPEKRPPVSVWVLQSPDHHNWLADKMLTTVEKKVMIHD
T5 sequence (P28223 whole entry): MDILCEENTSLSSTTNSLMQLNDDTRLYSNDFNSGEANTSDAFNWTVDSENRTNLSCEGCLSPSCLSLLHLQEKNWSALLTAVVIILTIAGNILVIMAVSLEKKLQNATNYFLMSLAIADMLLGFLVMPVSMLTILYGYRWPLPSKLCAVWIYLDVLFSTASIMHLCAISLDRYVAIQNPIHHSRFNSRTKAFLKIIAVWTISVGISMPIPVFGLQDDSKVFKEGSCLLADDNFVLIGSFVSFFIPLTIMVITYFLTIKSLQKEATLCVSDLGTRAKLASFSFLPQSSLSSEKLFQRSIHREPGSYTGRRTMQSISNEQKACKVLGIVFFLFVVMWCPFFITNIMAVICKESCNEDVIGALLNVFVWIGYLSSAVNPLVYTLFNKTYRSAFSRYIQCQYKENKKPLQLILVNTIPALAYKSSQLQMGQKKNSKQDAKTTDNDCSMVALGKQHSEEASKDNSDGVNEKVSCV

With `Cc1cc(-c2ccc(F)cc2)c2c(c1)c1c(n2C)CCN(C)C1` [Compound 7], the inhibition (in general, the relative decrease from the control value, in per cent) at 0.1 µM in assay [1] is 12%; in assay [2] it was -4%; in assay [3] it was 10%; in assay [4], 36%; in assay [5] it was 6%.

`Cc1cc(C#Cc2cccs2)c2[nH]c3c(c2c1)CN(C)CC3` [Compound 8]: the inhibition at 0.1 µM in assay [1] was 6%; in assay [2], -14%; in assay [3], 15%; in assay [4] it was 4%; in assay [5], 27%.

On to `Cc1cc(-c2ccncc2)c2c(c1)c1c(n2C)CCN(C)C1` [Compound 9], for which the inhibition at 0.1 µM in assay [1] is 26%; in assay [2], 6%; in assay [3] it was -2%; in assay [4] it was 9%; in assay [5] it was 5%.

Regarding `C#Cc1cc(C)cc2c3c(n(C)c12)CCN(C)C3` [Compound 10, 6-Ethynyl-2,3,4,5-tetrahydro-2,5,8-trimethyl-1H-pyrido[4,3-b]indole], the inhibition at 0.1 µM came out at 14% in assay [1]; 1% in assay [2]; 18% in assay [3]; 55% in assay [4]; 37% in assay [5].

With `C/C(=C\c1cc(C)cc2c3c(n(C)c12)CCN(C)C3)c1ccncc1` [Compound 11], the inhibition at 0.1 µM is -17% in assay [1]; -19% in assay [2]; -6% in assay [3]; -11% in assay [4]; 13% in assay [5].

Consider `Cc1cc(C#Cc2ccc(C)nc2)c2c(c1)c1c(n2C)CCN(C)C1` [Compound 12, 2,3,4,5-tetrahydro-2,5,8-trimethyl-6-(2-(6-methylpyridin-3-yl)ethynyl)-1H-pyrido[4,3-b]indole], for which the inhibition at 0.1 µM is 5% in assay [1]; -21% in assay [2]; -3% in assay [3]; 3% in assay [4]; 23% in assay [5].

For the compound `Cc1cc(CCc2ccc(C)nc2)c2c(c1)c1c(n2C)CCN(C)C1` [Compound 13], the inhibition at 0.1 µM was 16% in assay [1]; 15% in assay [2]; 2% in assay [3]; -11% in assay [4]; 13% in assay [5].

For the compound `Cc1cc(/C=C/c2ccc(C)nc2)c2c(c1)c1c(n2C)CCN(C)C1` [Compound 14], the inhibition at 0.1 µM in assay [1] is 13%; in assay [2], -7%; in assay [3], 10%; in assay [4], 1%; in assay [5] it was -7%.

With `C/C(=C\c1cc(C)cc2c3c(n(C)c12)CCN(C)C3)c1ccc(C)nc1` [Compound 15], the inhibition at 0.1 µM amounted to 36% in assay [1]; 11% in assay [2]; 11% in assay [3]; 28% in assay [4]; 1% in assay [5].

On to `Cc1cc(C#Cc2nccs2)c2[nH]c3c(c2c1)CN(C)CC3` [Compound 16], for which the inhibition at 0.1 µM in assay [1] was 35%; in assay [2] it was -2%; in assay [3], 14%; in assay [4], 20%; in assay [5], 21%.

As to `Cc1cc(C#Cc2ccncc2)c2c(c1)c1c(n2C)CCN(C)C1` [Compound 17], the inhibition at 0.1 µM came out at 23% in assay [1]; 15% in assay [2]; 5% in assay [3]; 19% in assay [4]; 24% in assay [5].

`Cc1ccc(C#Cc2cc(Cl)cc3c4c(n(C)c23)CCN(C)C4)cn1` [Compound 18]: the inhibition at 0.1 µM was found to be 8% in assay [1]; 17% in assay [2]; 6% in assay [3]; 27% in assay [4]; 80% in assay [5].
